Reference: ChEMBL document CHEMBL1201862, “PubChem BioAssay data set” (2004)
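Where inhibition never reached the appropriate level, the endpoint shown equals the highest concentration tested. Otherwise, values were interpolated linearly from a five-concentration, 48-hour dose response in 96-well plates. GI50 marks 50% less growth.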 The source made the active and inactive calls. Rule as the data show it: active = GI50 up to about 1.1 µM and inactive = higher.

Key:
Assay in all cases: NCI tumour cell line growth inhibition, 48 h
OVCAR-3 = test system: OVCAR-3
LXFL 529 = test system: LXFL 529
SK-OV-3 = test system: SK-OV-3
U-251 = test system: U-251
SNB-75 = test system: SNB-75
SF-539 = test system: SF-539
SNB-78 = test system: SNB-78
SK-MEL-28 = test system: SK-MEL-28
SK-MEL-5 = test system: SK-MEL-5
LOX IMVI = test system: LOX IMVI
SF-268 = test system: SF-268
SK-MEL-2 = test system: SK-MEL-2
M19-MEL = test system: M19-MEL
HCT-116 = test system: HCT-116
IGROV-1 = test system: IGROV-1
NCI-H522 = test system: NCI-H522
UACC-62 = test system: UACC-62
UO-31 = test system: UO-31
SR = test system: SR
CAKI-1 = test system: CAKI-1
M14 = test system: M14
HCT-15 = test system: HCT-15
Malme-3M = test system: Malme-3M
NCI-H460 = test system: NCI-H460
SN12C = test system: SN12C
KM12 = test system: KM12
KM-20L2 = test system: KM-20L2
DMS-114 = test system: DMS-114
A549 = test system: A549
ACHN = test system: ACHN
HOP-92 = test system: HOP-92
HOP-62 = test system: HOP-62
HT-29 = test system: HT-29
TK-10 = test system: TK-10
SW-620 = test system: SW-620
A498 = test system: A498
OVCAR-5 = test system: OVCAR-5
HL-60 = test system: HL-60
NCI/ADR-RES = test system: NCI/ADR-RES
MDA-MB-231 = test system: MDA-MB-231
T47D = test system: T47D
Hs-578T = test system: Hs-578T
CCRF-CEM = test system: CCRF-CEM
SF-295 = test system: SF-295
SNB-19 = test system: SNB-19
NCI-H226 = test system: NCI-H226
PC-3 = test system: PC-3
786-0 = test system: 786-0
NCI-H23 = test system: NCI-H23
RXF 393 = test system: RXF 393
OVCAR-4 = test system: OVCAR-4
MDA-MB-435 = test system: MDA-MB-435
OVCAR-8 = test system: OVCAR-8
MDA-N = test system: MDA-N
MOLT-4 = test system: MOLT-4
RPMI-8226 = test system: RPMI-8226
MCF7 = test system: MCF7
HCC 2998 = test system: HCC 2998
DU-145 = test system: DU-145
K562 = test system: K562
EKVX = test system: EKVX
UACC-257 = test system: UACC-257
COLO 205 = test system: COLO 205
DLD-1 = test system: DLD-1
DMS-273 = test system: DMS-273

Measured: GI50

COc1cc2c(cc1OC)C1C(=O)c3c(O)cc4c(c3OC1CO2)C=CC(C)(C)O4 (centres undefined)
inactive: OVCAR-3 13.5 µM | LXFL 529 7.03 µM | SK-OV-3 22.3 µM | U-251 12.3 µM | SNB-75 26.7 µM | SF-539 18.2 µM | SNB-78 31.9 µM | SK-MEL-28 35.6 µM | SK-MEL-5 1.17 µM | LOX IMVI 5.89 µM | SF-268 27.6 µM | SK-MEL-2 18.8 µM | M19-MEL 13.8 µM | HCT-116 10.9 µM | IGROV-1 19 µM | NCI-H522 1.28 µM | UACC-62 12.9 µM | UO-31 3.01 µM | SR > 100 µM | CAKI-1 21.7 µM | M14 23.5 µM | Malme-3M 20.6 µM | NCI-H460 20.8 µM | SN12C 27.2 µM | KM12 9.44 µM | KM-20L2 29.5 µM | A549 2.25 µM | HOP-92 18.2 µM | HOP-62 14.8 µM | HT-29 27.8 µM | TK-10 32.8 µM | SW-620 23.5 µM | A498 21.6 µM | OVCAR-5 84.1 µM
19.1 µM: HCT-15
active: DMS-114 0.366 µM | ACHN 0.748 µM

CCC/N=C/c1c(O)c(O)c(C(C)C)c2cc(C)c(-c3c(C)cc4c(C(C)C)c(O)c(O)c(/C=N/CCC)c4c3O)c(O)c12
inactive: OVCAR-3 3.88 µM | HL-60 3.01 µM | LXFL 529 3.73 µM | SK-OV-3 4.75 µM | U-251 2.07 µM | NCI/ADR-RES 30.1 µM | SNB-75 8.79 µM | SF-539 5.65 µM | SNB-78 2.58 µM | MDA-MB-231 13.9 µM | SK-MEL-28 12.6 µM | SK-MEL-5 18.7 µM | LOX IMVI 6.04 µM | T47D 7.74 µM | SF-268 6.92 µM | Hs-578T 69.3 µM | SK-MEL-2 2.76 µM | CCRF-CEM 1.54 µM | SF-295 3.77 µM | M19-MEL 4.05 µM | SNB-19 6.47 µM | NCI-H226 14.6 µM | PC-3 2.48 µM | HCT-116 3.44 µM | IGROV-1 11.1 µM | NCI-H522 1.53 µM | 786-0 10.2 µM | NCI-H23 6.1 µM | UACC-62 5.78 µM | RXF 393 3.54 µM | OVCAR-4 4.38 µM | MDA-MB-435 10.7 µM | OVCAR-8 6.46 µM | MDA-N 8.63 µM | UO-31 6.3 µM | MOLT-4 3.41 µM | SR 3.46 µM | CAKI-1 25.8 µM | M14 7.41 µM | RPMI-8226 9.16 µM | NCI-H460 4.38 µM | MCF7 14.7 µM | SN12C 10.4 µM | KM12 3.45 µM | HCC 2998 8.61 µM | KM-20L2 2.86 µM | DMS-114 1.71 µM | DU-145 23.8 µM | A549 8.05 µM | ACHN 3.99 µM | HOP-92 2.49 µM | K562 2.96 µM | HOP-62 10.2 µM | HT-29 4.04 µM | TK-10 > 100 µM | EKVX 7.19 µM | SW-620 6.55 µM | UACC-257 9.59 µM | COLO 205 5.25 µM | A498 11.2 µM | OVCAR-5 10 µM
7.46 µM: HCT-15

COc1cc(C=O)cc(O)c1O
> 100 µM: HCT-15
inactive: OVCAR-3 > 100 µM | HL-60 46.7 µM | LXFL 529 > 100 µM | SK-OV-3 > 100 µM | U-251 > 100 µM | SNB-75 > 100 µM | SF-539 > 100 µM | SNB-78 > 100 µM | SK-MEL-28 > 100 µM | LOX IMVI > 100 µM | SF-268 > 100 µM | DLD-1 > 100 µM | CCRF-CEM 38.9 µM | SF-295 > 100 µM | M19-MEL > 100 µM | SNB-19 > 100 µM | NCI-H226 > 100 µM | HCT-116 > 100 µM | IGROV-1 > 100 µM | DMS-273 > 100 µM | NCI-H522 99.8 µM | 786-0 > 100 µM | NCI-H23 > 100 µM | UACC-62 27.4 µM | RXF 393 > 10 µM | OVCAR-8 > 100 µM | UO-31 > 100 µM | MOLT-4 > 100 µM | SR 57.9 µM | M14 > 100 µM | Malme-3M > 100 µM | RPMI-8226 > 100 µM | NCI-H460 76.6 µM | SN12C > 100 µM | KM12 > 100 µM | HCC 2998 > 100 µM | KM-20L2 > 100 µM | DMS-114 > 100 µM | A549 > 100 µM | ACHN > 100 µM | K562 > 100 µM | HOP-62 > 100 µM | HT-29 8.07 µM | TK-10 > 100 µM | EKVX > 100 µM | SW-620 > 100 µM | UACC-257 > 100 µM | COLO 205 > 100 µM

COC1CCC(CO)OO1 (centres undefined)
inactive: OVCAR-3 18 µM | HL-60 18.4 µM | LXFL 529 8.71 µM | SK-OV-3 > 100 µM | U-251 4.57 µM | SNB-75 43.9 µM | SF-539 27.7 µM | SNB-78 15.9 µM | SK-MEL-28 52 µM | SF-268 35.8 µM | SK-MEL-2 47.9 µM | CCRF-CEM 13.9 µM | SF-295 14.1 µM | M19-MEL 60.4 µM | SNB-19 41.4 µM | HCT-116 30.3 µM | IGROV-1 26.4 µM | NCI-H522 12.9 µM | NCI-H23 18.8 µM | UACC-62 70.3 µM | RXF 393 33.7 µM | OVCAR-4 45.9 µM | UO-31 35.1 µM | MOLT-4 33.9 µM | SR 24.3 µM | M14 47.9 µM | Malme-3M 59.7 µM | RPMI-8226 19.1 µM | NCI-H460 24.7 µM | KM12 30.9 µM | KM-20L2 23.9 µM | DMS-114 15.3 µM | ACHN 38.2 µM | HOP-92 28.6 µM | K562 4.73 µM | HOP-62 9.64 µM | HT-29 28.9 µM | UACC-257 45.2 µM | COLO 205 53.6 µM | A498 13.1 µM | OVCAR-5 25.9 µM
